# Target: T1, human P2X7 (Homo sapiens, UniProt Q99572)
# T1 construct: 1321N1 cells stably expressing the full length human P2X7 gene (1321N1-hP2X7)
# T1 sequence (Q99572 1-595): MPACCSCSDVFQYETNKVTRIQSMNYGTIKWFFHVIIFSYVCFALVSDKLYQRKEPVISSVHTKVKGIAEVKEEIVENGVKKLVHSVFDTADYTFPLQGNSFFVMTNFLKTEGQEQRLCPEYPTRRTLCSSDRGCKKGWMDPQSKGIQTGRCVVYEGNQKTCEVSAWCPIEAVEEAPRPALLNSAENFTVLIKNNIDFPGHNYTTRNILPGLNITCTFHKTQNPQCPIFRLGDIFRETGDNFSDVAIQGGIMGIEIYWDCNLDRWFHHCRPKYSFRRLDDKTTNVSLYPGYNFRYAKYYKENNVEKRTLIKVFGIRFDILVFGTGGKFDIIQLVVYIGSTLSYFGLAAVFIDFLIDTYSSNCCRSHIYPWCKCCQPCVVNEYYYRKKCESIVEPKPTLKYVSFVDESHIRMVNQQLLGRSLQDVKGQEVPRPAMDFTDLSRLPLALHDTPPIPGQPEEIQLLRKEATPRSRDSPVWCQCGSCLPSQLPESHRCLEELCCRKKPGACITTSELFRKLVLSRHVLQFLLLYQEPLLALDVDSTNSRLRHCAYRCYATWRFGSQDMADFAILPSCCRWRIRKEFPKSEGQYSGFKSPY
# Test: P2X7 modulator pIC50 of Table 1 (assay not given; Intracellular Calcium Flux (FLIPR) Assay assumed)
# Assay type: cell-based
# Experimental: Intracellular Calcium Flux (FLIPR) Assay
# Stock solutions of compounds were prepared from powders as a 10 mM DMSO stock solution. These solutions were stored at RT during the two week period of these experiments to prevent freeze-thaw of the DMSO stocks. The DMSO stocks were added to the appropriate assay buffer at a concentration of 10 μM, and then diluted serially to the final concentrations that were tested. No observable precipitate was formed at any time during this process. The aqueous solutions of compounds as well as ATP (Sigma A7699) and BzATP (Sigma B6396) were prepared fresh for each day of experiment.
# 1321N1 cells stably expressing the full length human P2X7 gene (1321N1-hP2X7) and HEK293 cells stably expressing the full length rat P2X7 gene (HEK293-rP2X7) were obtained from the Roche Cell Culture Facility. 1321N1-hP2X7 cells were grown in Dulbecco's Modified Eagle's Medium (DMEM) high glucose supplemented with 10% FBS and 250 μg/mL G418. HEK293-rP2X7 cells were grown in DMEM/F-12 supplemented with 10% FBS, 1 mM CaCl2, 2 mM MgCl2, 2 mM L-Glutamine and 500 μg/ml G418. Cells were split such that they never became >70% confluent.
# On the day prior to the experiment, 1321N1-hP2X7 or HEK293-rP2X7 cells were released into suspension with calcium-free PBS+Versene and washed by centrifugation with calcium-free PBS to remove the Versene. Cells were resuspended in growth medium at a density of 2.5×10^5 cells/mL and seeded into black walled, clear bottom 96 well plates (50,000 cells/well) approximately 18 hr prior to intracellular calcium flux experiments.
# On the day of the experiment, plates were washed with FLIPR buffer (calcium- and magnesium-free Hank's Balanced Salt Solution (HBSS) supplemented with 10 mM Hepes, 2.5 mM probenecid and 2 mM calcium chloride) using a BIO-TEK 96 channel plate washer and incubated with […] fluo-3 dye at 37° C. for one hr. The dye was then removed by plate washing and the cells were allowed to equilibrate for 20 min at room temperature with antagonist or vehicle (FLIPR buffer). Agonist (100 μM BzATP final concentration for hP2X7; 5μM BzATP final concentration or rP2X7) was added online with the FLIPR and fluorescence measurements made at 1 sec intervals for 60 sec followed by 3 sec intervals for a further 4 min (5 min total). A final addition of 5 μM ionomycin was made and the maximal BzATP-evoked fluorescence normalized to the maximal ionomycin-evoked fluorescence.
row,IC50 [nM],Compound
1,91.2,"COC[C@H](O)Cn1c(=O)cnn(-c2ccc(C)c(NC(=O)C3=CN(C)C(=O)N[C@H]3c3ccc(F)cc3)c2)c1=O [Compound 25, (S)-4-(4-Fluoro-phenyl)-1-methyl-2-oxo-1,2,3,4-tetrahydro-pyrimidine-5-carboxylic acid {5-[4-((R)-2-hydroxy-3-methoxy-propyl)-3,5-dioxo-4,5-dihydro-3H-[1,2,4]triazin-2-yl]-2-methyl-phenyl}-amide]"
2,20,Cc1ccc(-n2ncccc2=O)cc1NC(=O)C1=CN(C)C(=O)N[C@H]1c1ccc(F)cc1 [Compound 26]
3,40.3,"Cc1ccc(=O)n(-c2ccc(C)c(NC(=O)C3=CN(C)C(=O)N[C@H]3c3ccc(F)cc3)c2)n1 [Compound 27, (S)-4-(4-Fluoro-phenyl)-1-methyl-2-oxo-1,2,3,4-tetrahydro-pyrimidine-5-carboxylic acid [2-methyl-5-(3-methyl-6-oxo-6H-pyridazin-1-yl)-phenyl]-amide]"
4,153,"Cc1ccc(-c2cncc(=O)[nH]2)cc1NC(=O)C1=CN(C)C(=O)N[C@H]1c1ccc(F)cc1 [Compound 28, (S)-4-(4-Fluoro-phenyl)-1-methyl-2-oxo-1,2,3,4-tetrahydro-pyrimidine-5-carboxylic acid [2-methyl-5-(6-oxo-1,6-dihydro-pyrazin-2-yl)-phenyl]-amide]"
5,54.7,"Cc1cc(Cl)c(OCCO)cc1NC(=O)C1=CN(C)C(=O)N[C@@H]1C1CCCCC1 [Compound 29, (R)-4-Cyclohexyl-1-methyl-2-oxo-1,2,3,4-tetrahydro-pyrimidine-5-carboxylic acid [4-chloro-5-(2-hydroxy-ethoxy)-2-methyl-phenyl]-amide]"
6,20.2,"Cc1cc(Cl)c(OCCO)cc1NC(=O)C1=CN(C)C(=O)N[C@H]1c1cccc(F)c1 [Compound 30, (S)-4-(3-Fluoro-phenyl)-1-methyl-2-oxo-1,2,3,4-tetrahydro-pyrimidine-5-carboxylic acid [4-chloro-5-(2-hydroxy-ethoxy)-2-methyl-phenyl]-amide]"
7,160,"Cc1ccc2[nH]c(=O)ccc2c1NC(=O)C1=CN(C)C(=O)N[C@H]1c1ccc(F)cc1 [Compound 31, (S)-4-(4-Fluoro-phenyl)-1-methyl-2-oxo-1,2,3,4-tetrahydro-pyrimidine-5-carboxylic acid (6-methyl-2-oxo-1,2-dihydro-quinolin-5-yl)-amide]"
8,21.1,"Cc1ccc(-c2ccn[nH]c2=O)cc1NC(=O)C1=CN(C)C(=O)N[C@H]1c1ccc(F)cc1 [Compound 32, (S)-4-(4-Fluoro-phenyl)-1-methyl-2-oxo-1,2,3,4-tetrahydro-pyrimidine-5-carboxylic acid [2-methyl-5-(3-oxo-2,3-dihydro-pyridazin-4-yl)-phenyl]-amide]"
9,107,"Cc1cc(-c2ccc(C)c(NC(=O)C3=CN(C)C(=O)N[C@H]3c3cccc(F)c3)c2)n[nH]1 [Compound 33, (S)-4-(3-Fluoro-phenyl)-1-methyl-2-oxo-1,2,3,4-tetrahydro-pyrimidine-5-carboxylic acid [2-methyl-5-(5-methyl-1H-pyrazol-3-yl)-phenyl]-amide]"
10,53.7,"CCc1c(NC(=O)C2=CN(C)C(=O)N[C@H]2c2ccc(F)cc2)ccc2nc(C)ccc12 [Compound 34, (S)-4-(4-Fluoro-phenyl)-1-methyl-2-oxo-1,2,3,4-tetrahydro-pyrimidine-5-carboxylic acid (5-ethyl-2-methyl-quinolin-6-yl)-amide]"
11,106,"Cc1ccc(-n2ncc(=O)n(C)c2=O)cc1NC(=O)C1=CN(C)C(=O)N[C@H]1c1ccc(F)cc1 [Compound 35, (S)-4-(4-Fluoro-phenyl)-1-methyl-2-oxo-1,2,3,4-tetrahydro-pyrimidine-5-carboxylic acid [2-methyl-5-(4-methyl-3,5-dioxo-4,5-dihydro-3H-[1,2,4]triazin-2-yl)-phenyl]-amide]"
12,140,"COC[C@@H](O)Cn1nc(-c2ccc(C)c(NC(=O)C3=CN(C)C(=O)N[C@H]3c3ccc(F)cc3)c2)cc1C [Compound 36, (S)-4-(4-Fluoro-phenyl)-1-methyl-2-oxo-1,2,3,4-tetrahydro-pyrimidine-5-carboxylic acid {5-[1-((S)-2-hydroxy-3-methoxy-propyl)-5-methyl-1H-pyrazol-3-yl]-2-methyl-phenyl}-amide]"
13,36.3,"Cc1ccc(-n2ncc(=O)n(C)c2=O)cc1NC(=O)C1=CN(C)C(=O)N[C@H]1c1cccc(F)c1 [Compound 37, (S)-4-(3-Fluoro-phenyl)-1-methyl-2-oxo-1,2,3,4-tetrahydro-pyrimidine-5-carboxylic acid [2-methyl-5-(4-methyl-3,5-dioxo-4,5-dihydro-3H-[1,2,4]triazin-2-yl)-phenyl]-amide]"
14,14.3,"CCn1nccc(-c2ccc(C)c(NC(=O)C3=CN(C)C(=O)N[C@H]3c3ccc(F)cc3)c2)c1=O [Compound 38, (S)-4-(4-Fluoro-phenyl)-1-methyl-2-oxo-1,2,3,4-tetrahydro-pyrimidine-5-carboxylic acid [5-(2-ethyl-3-oxo-2,3-dihydro-pyridazin-4-yl)-2-methyl-phenyl]-amide]"
15,43,"COCCN1C=C(C(=O)Nc2cc(OCCO)c(Cl)cc2C)[C@H](c2ccc(F)cc2)NC1=O [Compound 39, (S)-4-(4-Fluoro-phenyl)-1-(2-methoxy-ethyl)-2-oxo-1,2,3,4-tetrahydro-pyrimidine-5-carboxylic acid [4-chloro-5-(2-hydroxy-ethoxy)-2-methyl-phenyl]-amide]"
16,72.4,"Cc1ccc(-c2ccc(=O)n(C)n2)cc1NC(=O)C1=CN(C)C(=O)N[C@H]1c1ccc(F)cc1 [Compound 40, (S)-4-(4-Fluoro-phenyl)-1-methyl-2-oxo-1,2,3,4-tetrahydro-pyrimidine-5-carboxylic acid [2-methyl-5-(1-methyl-6-oxo-1,6-dihydro-pyridazin-3-yl)-phenyl]-amide]"
17,29.2,"Cc1ccc(-c2ccc(=O)[nH]n2)cc1NC(=O)C1=CN(C)C(=O)N[C@H]1c1ccc(F)cc1 [Compound 41, (S)-4-(4-Fluoro-phenyl)-1-methyl-2-oxo-1,2,3,4-tetrahydro-pyrimidine-5-carboxylic acid [2-methyl-5-(6-oxo-1,6-dihydro-pyridazin-3-yl)-phenyl]-amide]"
18,14.5,Cc1cc2cnn(CCO)c2cc1NC(=O)C1=CN(C)C(=O)N[C@H]1c1ccc(F)cc1 [Compound 42]
19,29.9,"COC[C@H](O)Cn1nccc(-c2ccc(C)c(NC(=O)C3=CN(C)C(=O)N[C@H]3c3ccc(F)cc3)c2)c1=O [Compound 43, (S)-4-(4-Fluoro-phenyl)-1-methyl-2-oxo-1,2,3,4-tetrahydro-pyrimidine-5-carboxylic acid {5-[2-((R)-2-hydroxy-3-methoxy-propyl)-3-oxo-2,3-dihydro-pyridazin-4-yl]-2-methyl-phenyl}-amide]"
20,54.3,"Cc1ccc(-c2ccnn(C)c2=O)cc1NC(=O)C1=CN(C)C(=O)N[C@H]1c1cccc(F)c1 [Compound 44, (S)-4-(3-Fluoro-phenyl)-1-methyl-2-oxo-1,2,3,4-tetrahydro-pyrimidine-5-carboxylic acid [2-methyl-5-(2-methyl-3-oxo-2,3-dihydro-pyridazin-4-yl)-phenyl]-amide]"
21,138,"CN1C=C(C(=O)Nc2cc(N3CCCC3=O)ccc2Br)[C@H](c2ccc(F)cc2)NC1=O [Compound 45, (S)-4-(4-Fluoro-phenyl)-1-methyl-2-oxo-1,2,3,4-tetrahydro-pyrimidine-5-carboxylic acid [2-bromo-5-(2-oxo-pyrrolidin-1-yl)-phenyl]-amide]"
22,12.2,Cc1cc2cnn(C)c2cc1NC(=O)C1=CN(C)C(=O)N[C@H]1c1ccc(F)cc1 [Compound 46]
